Results from US20060167098A1, “Method for the treatment of diseases linked to an accumulation of triglycerides and cholesterol” (Institut National De La Sante ET De LA Recherche Medicale …, priority 2003, published 2006).

Legend:
[1] = system: mitochondrial beta-oxidation of fatty acids in liver; experiment: Mitochondrial beta-oxidation of fatty acids in liver
[2] = Body fat mass by DEXA in Swiss mice fed with a western diet; type: in vivo
Procedure: In our investigations, two kinds of diet were used: 1—a standard diet (A04 diet from UAR) containing 3% of lipids and bringing 2900 kcal per kg; 2—a western diet (from UAR too) containing 16% of lipids and bringing 4300 kcal per kg.
D,L-β-Aminoisobutyric acid (BAIBA) was purchased from Sigma-Aldrich. BAIBA has been administered in drinking water at the dose of 100 mg/kg/day or 500 mg/kg/day for 6 weeks, 2 months or 4 months according to the experiments.
The in vivo determination of body fat mass in anesthetized mice has been performed by “DEXA” (Dual Energy X-ray Absorptiometry) (Pietriobelli A., Formica C., Wang Z., Heymsfield S. B., 1996, Am. J. Physiol. 271 (Endocrinol. Metab. 34): E941-E951)). […] It is noteworthy that DEXA also gives for each investigated animal its lean mass that is the total amount of water and proteins (in grams) in the body (excluding the head). Therefore, for a given animal, DEXA allows the determination of the percentage of body fat which is its body fat mass divided by the sum of its body lean and fat masses (fat mass/(lean mass+fat mass)). The “DEXA” apparatus was a Piximus® from Lunar Corporation (Madison, Wis.). Mice were anesthetized thanks to a mixture of xylazine and ketamine. […]
In a third series of experiments, we sought to determine as to whether of 100 mg/kg/day of β-aminoisobutyric acid (BAIBA) would be able to decrease body fat mass in Swiss mice fed with a western diet (i.e. hypercaloric diet). For this purpose, young (4 weeks old at T0) Swiss mice were fed with a hypercaloric western diet (WD), with or without BAIBA in the drinking water (8 mice in each group). For comparison, the experiment included a group of mice (n=8) fed with a standard diet (SD). DEXA was performed one day before the beginning of the treatment (T0) and then two, four and six weeks after the initiation of the experience (T2, T4 and T6, respectively). This allowed us to determine for each animal the variation of body parameters (e.g. fat mass, body weight) for the different periods of the treatment (T0-T2, T2-T4, T4-T6 and T0-T6). For these four DEXA determinations (T0 to T6), mice were not fasted before measurements. In this experiment, BAIBA reduced the gain of body fat mass in Swiss mice fed with a western diet and this beneficial effect was observed from the fourth week of the BAIBA administration. This effect is illustrated in FIG. 3. […] Indeed, during the T0-T6 period control mice fed with the western diet (Controls-WD) gained 4.88±0.83 grams of body fat whereas mice fed with the same diet and receiving BAIBA (BAIBA-WD) gained 3.91±0.59 grams of body fat mass. For comparison, mice fed with the standard diet (Controls-SD) gained 3.18±0.34 grams of body fat during the entire period (T0-T6) of the experiment. • At the end of the treatment (T6), the body fat mass was 4.48±0.33, 6.21±0.85 and 5.25±0.60 grams, respectively for the Controls-SD, Controls-WD and BAIBA-WD groups of mice (15% decrease between Controls-WD and BAIBA-WD). The percentage of body fat ((fat mass)/(fat+lean mass)) was at this time 13.23±0.86, 17.96±2.04 et 15.76±1.53%, respectively in the Controls-SD, Controls-WD and BAIBA-WD groups.
Finally, we sought to determine on the very same animals as to whether fasting would be able to enhance the beneficial effect of BAIBA on body fat mass. Thus, after the fourth DEXA measurement (i.e. DEXA determination at T6), mice were allowed to recover from the anaesthesia for ca. 2 days and were then submitted to a 48-hour period of fast. A last DEXA measurement was then performed in fasted mice. […] Indeed, after the fasting period, body fat mass was 3.10±0.30, 5.40±0.75 et 4.79±0.56 grams, respectively in control mice fed the standard diet (Controls-SD), control mice fed with the western diet (Controls-WD), and mice fed with the western diet and receiving BAIBA (BAIBA-WD). […]

**Q.** For CC(CN)C(=O)O (racemic) [BAIBA, D,L-β-Aminoisobutyric acid], which “mitochondrial beta-oxidation of fatty acids in liver” value [1] is on record?
**A.** Its value is “increases”.

**Q.** And the “gain of body fat mass” value ([2]; 100 mg/kg/day, western diet, T0-T6)?
**A.** Its value is 3.91±0.59 grams.

**Q.** And the “reduction of the gain of body fat mass” value ([2]; 100 mg/kg/day, western diet, T0-T6, vs Controls-WD)?
**A.** The value was 20%.

**Q.** And the body fat lost ([2]; 100 mg/kg/day, western diet, T4-T6 period)?
**A.** Its body fat lost is 0.45±0.30 grams.

**Q.** And the body weight ([2]; 100 mg/kg/day, western diet, after 6 weeks)?
**A.** The body weight was 37.0±0.76 grams.

**Q.** And the “percentage of body fat ((fat mass)/(fat+lean mass))” value ([2]; 100 mg/kg/day, western diet, at T6)?
**A.** Its value is 15.76±1.53%.

**Q.** What about the body fat mass ([2]; 100 mg/kg/day, western diet, at T6, fed) of the same compound?
**A.** Its body fat mass is 5.25±0.60 grams.

**Q.** What about the body fat mass ([2]; western diet 6 weeks, after 48-hour fasting period) of the same compound?
**A.** Its body fat mass is 4.79±0.56 grams.

**Q.** What about the “decrease of the percentage of body fat” value ([2]; western diet 6 weeks, fasted state) of the same compound?
**A.** The value was 11%.

**Q.** What about the “decrease of the percentage of body fat” value ([2]; western diet 6 weeks, fed state) of the same compound?
**A.** The value was 15%.

**Q.** What about the “decrease of body fat mass between Controls-WD and BAIBA-WD” value ([2]; western diet, at T6) of the same compound?
**A.** The value was 15%.

**Q.** And the body weight ([2]; western diet, at the end of the fasting period)?
**A.** The body weight was 33.6±0.9 grams.
